“Also recorded” adds a separate entry of the source.
Experiments:
Format in all cases: cell-based
porcine saphenous vein [1] = assay: KCl-induced contraction of porcine saphenous vein after stretch injury, with or without dye
Method: Freshly isolated porcine saphenous vein was collected in cold transplant harvest buffer (100 mM potassium lactobionate, 25 mM KH2PO4, 5 mM MgSO4, 30 mM raffinose, 5 mM adenosine, 3 mM glutathione, 1 mM allopurinol, 50 g/L hydroxyethyl starch, pH 7.4). The vessels were tested within 24 hours of harvest and storage in transplant harvest buffer at 4° C. The vein was dissected free of fat and connective tissue and cut into 2 cm long segments. The segments were stretched to twice their resting length (stretched; n=7) or not manipulated (control; n=12). After stretching, the segments from both groups were further divided. A solution of erioglaucine (FCF, 2.6 mM, in 5% propylene glycol and water) or vehicle was then applied with a cotton swab in a longitudinal line to the untreated (FCF; n=8) or the stretched (Stretched+FCF; n=3) vein segments. The segments were incubated at room temperature for 15 min in Plasmalyte and then cut into rings. The rings were suspended in a muscle bath containing a bicarbonate buffer (120 mM NaCl, 4.7 mM KCl, 1.0 mM MgSO4, 1.0 mM NaH2PO4, 10 mM glucose, 1.5 mM CaCl2, and 25 mM […], pH 7.4), bubbled with 95% O2/5% CO2 at 37° C. The rings were manually stretched to 4 g of tension, and maintained at a resting tension of 1 g and equilibrated for ˜2 hr.
Rings from stretched segments were either incubated with 50 μM Allura Red (+Red) or 50 μM of erioglaucine (+FCF) for 30 min. The rings were then allowed to equilibrate in the bicarbonate buffer for before contracting with 110 mM KCl. Force generated was converted to stress (10^5 N/m^2). Data represent relative contractile response to Control rings which was set as 100%.

human saphenous vein [2] = assay: KCl-induced contraction of human saphenous vein rings treated with erioglaucine; conditions: FIGS. 11A-B
Method: Effect of erioglaucine on human saphenous vein was determined using de-identified discarded segments of human saphenous vein from patients undergoing coronary artery bypass or peripheral vascular bypass surgery (n=4). The veins were stored in a saline solution until the end of the surgical procedure at which time they were placed in cold transplant harvest buffer (100 mM potassium lactobionate, 25 mM KH2PO4, 5 mM MgSO4, 30 mM raffinose, 5 mM adenosine, 3 mM glutathione, 1 mM allopurinol, 50 g/L hydroxyethyl starch, pH 7.4). The vessels were tested within 24 hrs of harvest storage in transplant harvest buffer at 4° C. To test the viability, rings 1.0 mm in width were cut from segments of saphenous vein dissected free of fat and connective tissue, treated with either a solution of erioglaucine (FCF, 2.6 mM, in 5% propylene glycol and water) or vehicle and incubated for 30 min at room temperature. The tissues were then stripped of the endothelium and suspended in a muscle bath containing a bicarbonate buffer, gassed with 95% O2/5% CO2 at 37° C. The rings were manually stretched to 4 g of tension, and was maintained at a resting tension of 1 g was obtained and equilibrated for ˜2 hr. […] The rings were contracted with 110 mM KCl (with equimolar replacement of NaCl in bicarbonate buffer), and the force generated was measured. […]

human saphenous vein [3] = assay: BzATP-induced contraction of saphenous vein rings after erioglaucine pretreatment; conditions: erioglaucine 50-200 μM for 30 min, then 100 μM BzATP; FIG. 12
Method: Human saphenous vein segments were collected after harvest before surgical manipulation from patients undergoing coronary artery bypass or peripheral vascular bypass surgery and stored in PlasmaLyte. The vessels were tested within 2 hours of harvest. Freshly isolated porcine saphenous vein was collected in cold transplant harvest buffer (100 mM potassium lactobionate, 25 mM KH2PO4, 5 mM MgSO4, 30 mM Raffinose, 5 mM Adenosine, 3 mM Glutathione, 1 mM Allopurinol, 50 g/L Hydroxyethyl starch, pH 7.4). The vessels were tested within 24 hours of harvest. Rings 1.0 mm in width were cut from porcine saphenous veins (FIG. 12A, n=2) and unmanipulated human saphenous vein (FIG. 12B, n=4) dissected free of fat and connective tissue. The rings were then stripped of the endothelium and suspended in a muscle bath containing a bicarbonate buffer, bubbled with 95% O2/5% CO2 at 37° C. The rings were manually stretched to 4 g of tension, and was maintained at a resting tension of 1 g was obtained and equilibrated for ˜2 hr. Force measurements were obtained using a Radnoti Glass Technology (Monrovia, Calif.) force transducer (159901A) interfaced with a Powerlab data acquisition system and Chart software (AD Instruments, Colorado Springs, Colo.). Rings were contracted with 110 mM KCl. […] Force was measured and converted to stress. Response was expressed as % of maximal KCl contraction. […]

human saphenous vein [4] = assay: Intimal thickness of human saphenous vein rings in 14 day organ culture; conditions: 50 μM erioglaucine, 14 days culture, compared to Control; FIG. 13
Method: Segments of human saphenous vein were collected prior to preparation of the vein for transplantation into the arterial circulation (unmanipulated, UM) and after surgical preparation (after manipulation, AM) from the same patients in PlasmaLyte and were used within 2 hr of harvest. The segment was cut into ˜1 mm rings and one ring from each group was fixed in formalin (Pre-culture). The other rings were cultured in RPMI medium supplemented with 1% L-glutamine, 1% penicillin/streptomycin and 30% fetal bovine serum at 5% CO2 and 37° C. in the absence (Control) or presence of 50 μM erioglaucine (FCF) for 14 days. After 14 days, the rings were fixed in formalin, sectioned at 5 μm and stained using Verhoff Van Gieson stain. Light micrograph of the rings was captured using an Axiovert 200 and intimal thickness was measured using AxioVision. Data represent % increase of intimal thickness related to basal intimal thickness of the pre-culture ring which was set as 0%. The error bars show the standard error of the mean.

porcine saphenous vein [5] = assay: Intimal thickening of distended porcine saphenous vein rings in 14 day organ culture; conditions: 50 μM dye, 14 days culture, distended to >300 mm Hg, compared to Distended-Control; FIG. 14
Method: Fresh porcine saphenous vein was harvested by a no touch method under sterile conditions and stored in cold transplant harvest buffer (100 mM potassium lactobionate, 25 mM KH2PO4, 5 mM MgSO4, 30 mM Raffinose, 5 mM Adenosine, 3 mM Glutathione, 1 mM Allopurinol, 50 g/L Hydroxyethyl starch, pH 7.4). The vessels were used within 24 hr of harvest. The veins were divided into three segments that were left untreated (Unmanipulated, n=7), distended (Distended, n=8) to >300 mm Hg, or distended in the presence of the pressure relief valve (Pop Off, n=7). Each segment was then cut into ˜1 mm rings and one ring from each condition was immediately fixed in formalin (Pre-culture). The other rings were cultured in RPMI medium supplemented with 1% L-glutamine, penicillin/streptomycin and 30% Fetal bovine serum at 5% CO2 and 37° C. in the absence (Control) or presence of either 50 μM erioglaucine (FCF), 50 μM brilliant blue G (BBG) or 50 μM Allura Red (Red) for 14 days. After 14 days, the rings were fixed in formalin, sectioned at 5 μm and stained using Verhoff Van Gieson stain. Light micrograph of the rings was captured using a Axiovert 200 and intimal thickness was measured using AxioVision.

SMILES: CCN(Cc1cccc(S(=O)(=O)[O-])c1)c1ccc(C(=C2C=CC(=[N+](CC)Cc3cccc(S(=O)(=O)[O-])c3)C=C2)c2ccccc2S(=O)(=O)[O-])cc1.[Na+].[Na+] [erioglaucine]
- restoration of functional viability (contractile response to KCl) after stretch injury (porcine saphenous vein [1]; 50 μM dye for 30 min on rings from stretched segments, FIG. 10): significantly restored contractile response
- restoration of functional viability after stretch injury (in words) (porcine saphenous vein [1]; FIG. 9): restores functional viability
- smooth muscle viability (in words) (human saphenous vein [2]): restores smooth muscle viability
- BzATP induced contraction (human saphenous vein [3]): significantly inhibited BzATP induced contraction; also recorded: blocks BzATP-induced contraction
- development of intimal thickness (human saphenous vein [4]): inhibited the development of intimal thickness; also recorded: reduces intimal thickness
- distension induced increases in intimal thickening (porcine saphenous vein [5]): inhibited distension induced increases in intimal thickening; also recorded: reduces intimal layer thickening

From patent US10149470B2, “Methods and compositions for vein harvest and autografting” (Vanderbilt University, priority 2009, dated 2018)
